Columns and labels:
Type in all cases: in vivo
Kochia (Kochia scoparia) [1] = assay: Test A preemergence; conditions: Bassia scoparia, pre-emergence, 240 h, Preemergence
How it was run: (§1)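 Visual injury scores from 0, no effect, to 100, complete control, were assigned versus untreated controls roughly 10 d after treatment in the greenhouse. Test chemicals, formulated with surfactant in a non-phytotoxic solvent, were applied to planted seeds as a preemergence soil spray or postemergence to one- to two-leaf plants 2 to 10 cm tall, in loam–sand soil.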

[2] = test system: barnyardgrass (Echinochloa crus-galli); assay: Test A preemergence; conditions: Echinochloa crus-galli, pre-emergence, 240 h, Preemergence
How it was run: as §1

[3] = test system: giant foxtail (Setaria faberii); assay: Test A preemergence; conditions: Setaria faberi, pre-emergence, 240 h, Preemergence
How it was run: as §1

[4] = test system: pigweed (Amaranthus retroflexus); assay: Test A preemergence; conditions: Amaranthus retroflexus, pre-emergence, 240 h, Preemergence
[5] = test system: ragweed (common ragweed, Ambrosia elatior); assay: Test A preemergence; conditions: Ambrosia artemisiifolia, pre-emergence, 240 h, Preemergence
How it was run: as §1

[6] = test system: ryegrass, Italian (Italian ryegrass, Lolium multiflorum); assay: Test A preemergence; conditions: Lolium multiflorum, pre-emergence, 240 h, Preemergence
How it was run: as §1

[7] = test system: Galium (catchweed bedstraw, Galium aparine); assay: Test A postemergence; conditions: Galium, post-emergence, 240 h, Postemergence, read-out: Plant response rating, Galium
How it was run: as §1

Kochia (Kochia scoparia) [8] = assay: Test A postemergence; conditions: Bassia scoparia, post-emergence, 240 h, Postemergence, read-out: Plant response rating, Kochia
How it was run: as §1

[9] = test system: barnyardgrass (Echinochloa crus-galli); assay: Test A postemergence; conditions: Echinochloa crus-galli, post-emergence, 240 h, Postemergence, read-out: Plant response rating, Barnyardgrass
How it was run: as §1

[10] = test system: blackgrass (Alopecurus myosuroides); assay: Test A postemergence; conditions: Alopecurus myosuroides, post-emergence, 240 h, Postemergence, read-out: Plant response rating, Blackgrass
How it was run: as §1

corn (Zea mays) = assay: Test A postemergence; conditions: Zea mays, post-emergence, 240 h, Postemergence
How it was run: as §1

[11] = test system: giant foxtail (Setaria faberii); assay: Test A postemergence; conditions: Setaria faberi, post-emergence, 240 h, Postemergence, read-out: Plant response rating, Foxtail, Giant
How it was run: as §1

[12] = test system: pigweed (Amaranthus retroflexus); assay: Test A postemergence; conditions: Amaranthus retroflexus, post-emergence, 240 h, Postemergence, read-out: Plant response rating, Pigweed
How it was run: as §1

[13] = test system: ragweed (common ragweed, Ambrosia elatior); assay: Test A postemergence; conditions: Ambrosia artemisiifolia, post-emergence, 240 h, Postemergence, read-out: Plant response rating, Ragweed
How it was run: as §1

[14] = test system: ryegrass, Italian (Italian ryegrass, Lolium multiflorum); assay: Test A postemergence; conditions: Lolium multiflorum, post-emergence, 240 h, Postemergence, read-out: Plant response rating, Ryegrass, Italian
How it was run: as §1

[15] = test system: wheat (Triticum aestivum); assay: Test A postemergence; conditions: Triticum aestivum, post-emergence, 240 h, Postemergence, read-out: Plant response rating, Wheat
How it was run: as §1

[16] = test system: barnyardgrass (Echinochloa crus-galli); assay: Test B flooded paddy test; conditions: Echinochloa crus-galli, 250 g ai/ha, Flood; 0 to 100 scale where 0 is no effect and 100 is complete control; read-out: Barnyardgrass plant response rating
How it was run: (§2)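 Percent control, visually estimated after 13–15 d in the greenhouse on a 0–100 basis, compares treated pots with untreated ones; compound was put into paddy water 3 cm above the soil when plants had two leaves.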

[17] = test system: ducksalad (Heteranthera limosa); assay: Test B flooded paddy test; conditions: Heteranthera limosa, 250 g ai/ha, Flood; 0 to 100 scale where 0 is no effect and 100 is complete control; read-out: Ducksalad plant response rating
How it was run: as §2

rice (Oryra sativa) = assay: Test B flooded paddy test; conditions: Oryza sativa, 250 g ai/ha, Flood; 0 to 100 scale where 0 is no effect and 100 is complete control; read-out: Rice plant response rating
How it was run: as §2

[18] = test system: sedge, umbrella (small-flower umbrella sedge, Cyperus difformis); assay: Test B flooded paddy test; conditions: Cyperus difformis, 250 g ai/ha, Flood; 0 to 100 scale where 0 is no effect and 100 is complete control; read-out: Sedge, Umbrella plant response rating
How it was run: as §2

[19] = 125 g ai/ha, visual injury after approximately 10 d, 0 to 100 scale where 0 is no effect and 100 is complete control
[20] = 31 g ai/ha, visual injury after approx. 10 d, 0 to 100 scale, 0 no effect, 100 complete control

CN1CC[C@H](c2ccccc2C(F)(F)F)[C@@H](C(=O)Nc2cccc(F)c2F)C1=O [Compound 1009]
0%: pest or weed control at 31 g/ha (Kochia (Kochia scoparia) [1]; 31 g ai/ha, 0 to 100 scale where 0 is no effect and 100 is complete control, read-out: Kochia plant response rating) | pest or weed control at 125 g/ha (Kochia (Kochia scoparia) [1]; 125 g ai/ha, visual injury rating after approximately 10 d, read-out: Kochia plant response rating (0 to 100 scale, 0 is no effect, 100 is complete control)) | pest or weed control at 125 g/ha ([2]; 125 g ai/ha, visual injury rating after approximately 10 d, read-out: Barnyardgrass plant response rating (0 to 100 scale, 0 is no effect, 100 is complete control)) | pest or weed control at 31 g/ha ([2]; 31 g ai/ha, 0 to 100 scale (0 no effect, 100 complete control), read-out: Plant response rating, Barnyardgrass) | pest or weed control at 125 g/ha ([3]; 125 g ai/ha, visual injury rating after approximately 10 d, read-out: Foxtail, Giant plant response rating (0 to 100 scale, 0 is no effect, 100 is complete control)) | pest or weed control at 31 g/ha ([3]; 31 g ai/ha, 0 to 100 scale (0 no effect, 100 complete control), read-out: Plant response rating, Foxtail, Giant) | pest or weed control at 31 g/ha ([4]; 31 g ai/ha, 0 to 100 scale where 0 is no effect and 100 is complete control, read-out: Pigweed plant response rating) | pest or weed control at 125 g/ha ([4]; 125 g ai/ha, visual injury rating after approximately 10 d, read-out: Pigweed plant response rating (0 to 100 scale, 0 is no effect, 100 is complete control)) | pest or weed control at 31 g/ha ([5]; 31 g ai/ha, 0 to 100 scale where 0 is no effect and 100 is complete control, read-out: Ragweed plant response rating) | pest or weed control at 125 g/ha ([5]; 125 g ai/ha, visual injury rating after approximately 10 d, read-out: Ragweed plant response rating (0 to 100 scale, 0 is no effect, 100 is complete control)) | pest or weed control at 31 g/ha ([6]; 31 g ai/ha, 0 to 100 scale where 0 is no effect and 100 is complete control, read-out: Ryegrass, Italian plant response rating) | pest or weed control at 125 g/ha ([6]; 125 g ai/ha, visual injury rating after approximately 10 d, read-out: Ryegrass, Italian plant response rating (0 to 100 scale, 0 is no effect, 100 is complete control)) | pest or weed control at 125 g/ha [7, 19] | pest or weed control at 31 g/ha [7, 20] | pest or weed control at 125 g/ha (Kochia (Kochia scoparia) [8]; [19]) | pest or weed control at 31 g/ha (Kochia (Kochia scoparia) [8]; [20]) | pest or weed control at 125 g/ha [9, 19] | pest or weed control at 31 g/ha [9, 20] | pest or weed control at 125 g/ha [10, 19] | pest or weed control at 31 g/ha [10, 20] | Corn plant response rating (crop injury, 0 = no effect, 100 = complete kill) at 125 g/ha (corn (Zea mays); [19]) | Corn plant response rating (crop injury, 0 = no effect, 100 = complete kill) at 31 g/ha (corn (Zea mays); [20]) | pest or weed control at 125 g/ha [11, 19] | pest or weed control at 31 g/ha [11, 20] | pest or weed control at 125 g/ha [12, 19] | pest or weed control at 31 g/ha [12, 20] | pest or weed control at 125 g/ha [13, 19] | pest or weed control at 31 g/ha [13, 20] | pest or weed control at 125 g/ha [14, 19] | pest or weed control at 31 g/ha [14, 20] | plant injury at 125 g/ha [15, 19] | plant injury at 31 g/ha [15, 20] | pest or weed control at 250 g/ha [16] | pest or weed control at 250 g/ha [17] | pest or weed control at 250 g/ha (rice (Oryra sativa)) | pest or weed control at 250 g/ha [18]
